# From the NIST ThermoML archive (doi:10.1016/j.jct.2010.07.001)
# ± gives the expanded uncertainty stated by the source.
# Legend:
# [1] = Crystal; DTA
# [2] = Molar enthalpy of transition or fusion; details: Crystal; DSC
Structure (SMILES),Normal melting temperature [1],Molar enthalpy of transition or fusion [2]
CC(C)(C)NCC(O)COc1cccc2c1CC(O)C(O)C2 (configuration not stated),130.2 ± 2.1 °C,12.7 ± 0.335 kcal/mol
"c1ccc(-c2ccc(C(c3ccccc3)n3ccnc3)cc2)cc1 (configuration not stated) [1-([1,1'-biphenyl]-4-yl(phenyl)methyl)-1H-imidazole]",150 ± 2.1 °C,8.96 ± 0.239 kcal/mol
CC(C)NCC(O)COc1ccc(CC(N)=O)cc1 (configuration not stated) [2-(4-(2-hydroxy-3-(isopropylamino)propoxy)phenyl)acetamide],151.4 ± 2.1 °C,8.75 ± 0.239 kcal/mol
"Cc1cccc(Nc2ccccc2C(=O)O)c1C [2-((2,3-dimethylphenyl)amino)benzoic acid]",230.0 ± 2.1 °C,17 ± 9.56 kcal/mol

# Continued, values first:
Normal melting temperature [1],Molar enthalpy of transition or fusion [2],Structure (SMILES)
254.0 ± 2.1 °C,10.8 ± 0.287 kcal/mol,"C[C@]12CC[C@@H]3c4ccc(O)cc4CC[C@H]3[C@@H]1CCC2=O [3-hydroxy-1,3,5(10)-estratrien-17-one]"
149.1 ± 2.1 °C,11.3 ± 0.311 kcal/mol,CS(=O)(=O)Nc1ccc([N+](=O)[O-])cc1Oc1ccccc1 [nimesulide]
